Reference: ChEMBL document CHEMBL4190272, “Norditerpenoids and Dinorditerpenoids from the Seeds of Podocarpus nagi as Cytotoxic Agents and Autophagy Inducers” (J Nat Prod, 2017)
The source made the active and inactive calls. The rule behind the calls is not given here.

Assays:
[1] = tested on: A2780; assay: Cytotoxicity against human A2780 cells up to 10 uM after 48 hrs by MTT assay; assay type: functional, cell-based
[2] = tested on: HEY; assay: Cytotoxicity against human HEY cells up to 10 uM after 48 hrs by MTT assay; assay type: functional, cell-based
[3] = tested on: HEY; assay: Cytotoxicity against human HEY cells after 48 hrs by MTT assay; assay type: functional, cell-based
[4] = tested on: A2780; conditions: Homo sapiens
Description: (§1) Cytotoxicity against human A2780 cells after 48 hrs by MTT assay

[5] = tested on: A2780; assay: cells; conditions: Homo sapiens, A2780, 48 h
Description: as §1

[6] = tested on: A2780; assay: Induction of autophagy in human A2780 cells assessed as increase in LC3-2 expression by Western blot analysis; assay type: functional, cell-based
[7] = tested on: HEY; assay: Induction of autophagy in human HEY cells assessed as increase in LC3-2 expression by Western blot analysis; assay type: functional, cell-based
[8] = target: T1, c-Jun N-terminal kinase, JNK (Homo sapiens) (UniProt P45983+P53779+P45984); assay: Activation of JNK in human A2780 cells assessed as increase in c-jun expression up to 10 uM after 24 hrs by Western blot analysis; assay type: cell-based
[9] = target: T1, c-Jun N-terminal kinase, JNK (Homo sapiens); assay: Activation of JNK in human A2780 cells assessed as increase in phosphorylated c-jun expression up to 10 uM after 24 hrs by Western blot analysis; assay type: cell-based
[10] = target: T1, c-Jun N-terminal kinase, JNK (Homo sapiens); assay: Activation of JNK phosphorylation in human A2780 cells up to 10 uM after 24 hrs by Western blot analysis; assay type: cell-based
[11] = target: T1, c-Jun N-terminal kinase, JNK (Homo sapiens); assay: Activation of JNK in human A2780 cells assessed as increase in phosphorylated c-jun expression up to 10 uM after 24 hrs in presence of JNK/c-Jun pathway inhibitor SP600125 by Western blot analysis; assay type: cell-based
[12] = tested on: HEY; assay: Induction of autophagy in human HEY cells assessed as increase in LC3-2 expression up to 10 uM after 24 hrs by Western blot analysis; assay type: functional, cell-based
[13] = tested on: A2780; assay: Induction of autophagy in human A2780 cells assessed as increase in LC3-2 expression up to 10 uM after 24 hrs by Western blot analysis; assay type: functional, cell-based
[14] = tested on: A2780; assay: Induction of autophagy in human A2780 cells expressing mRFP-GFP-LC3 plasmid assessed as increase in LC3 punctum formation at 10 uM after 24 hrs by confocal microscopic analysis; assay type: functional, cell-based
[15] = tested on: A2780; assay: Induction of autophagy in human A2780 cells assessed as increase in LC3-2 expression in presence of JNK/c-Jun pathway inhibitor SP600125 by Western blot analysis; assay type: functional, cell-based
[16] = target: T1, c-Jun N-terminal kinase, JNK (Homo sapiens); assay: Activation of JNK phosphorylation in human A2780 cells up to 10 uM after 24 hrs in presence of JNK/c-Jun pathway inhibitor SP600125 by Western blot analysis; assay type: cell-based

Row | Compound | Activity [1] | Activity [2] | Activity [3] | Activity [4] | other results
1 | CC(O)c1oc(=O)cc2c1C[C@H]1OC(=O)[C@@]3(C)[C@@H](O)[C@@H](O)[C@H](Cl)[C@@]2(C)[C@@H]13 (some centres not stated) | inactive | inactive | – | – | –
2 | CC(C)c1oc(=O)cc2c1[C@@H](O)[C@H]1OC(=O)[C@@]3(C)C[C@@H](O)C[C@@]2(C)[C@@H]13 | – | – | Active | Active | –
3 | CCc1oc(=O)cc2c1C[C@H]1OC(=O)[C@@]3(C)CC[C@@H](O)[C@@]2(C)[C@@H]13 | – | – | – | – | IC50 [3]: 6400 nM; IC50 [5]: 3800 nM
4 | CC(C)c1oc(=O)cc2c1[C@@H](O)[C@H]1OC(=O)[C@@]3(C)C[C@@H](O)[C@@H](O)[C@@]2(C)[C@@H]13 | – | – | Active | Active | –
5 | CCc1oc(=O)cc2c1C[C@H]1OC(=O)[C@@]3(C)[C@@H](O)[C@H]4O[C@H]4[C@@]2(C)[C@@H]13 | – | – | Active | Active | –
6 | CCc1oc(=O)cc2c1C[C@H]1OC(=O)[C@@]3(C)[C@H](O)[C@H]4O[C@H]4[C@@]2(C)[C@@H]13 | – | – | Active | Active | Activity [6]: Active; Activity [7]: Active
7 | CC(C)[C@H]1OC(=O)C=C2[C@@]13O[C@@H]3[C@H]1OC(=O)[C@@]3(C)CCC[C@@]2(C)[C@@H]13 | – | – | Active | Active | –
8 | CCc1oc(=O)cc2c1C[C@H]1OC(=O)[C@@]3(C)[C@@H](O)C[C@@H](O)[C@@]2(C)[C@@H]13 | inactive | inactive | – | – | –
9 | CC(C)c1oc(=O)cc2c1[C@@H](O)[C@H]1OC(=O)[C@@]3(C)[C@@H](O)[C@H]4O[C@H]4[C@@]2(C)[C@@H]13 | – | – | Active | Active | –
10 | CC(O)c1oc(=O)cc2c1C[C@H]1OC(=O)[C@@]3(C)[C@H](O)[C@H]4O[C@H]4[C@@]2(C)[C@@H]13 (some centres not stated) | inactive | inactive | – | – | –
11 | CC(C)c1oc(=O)cc2c1[C@@H](O)[C@H]1OC(=O)[C@@]3(C)CC[C@@H](O)[C@@]2(C)[C@@H]13 | – | – | Active | Active | –
12 | CCc1oc(=O)cc2c1C[C@H]1OC(=O)[C@@]3(C)[C@@H](O)[C@@H](O)[C@H](O)[C@@]2(C)[C@@H]13 | inactive | inactive | – | – | –
13 | CCc1oc(=O)cc2c1C[C@H]1OC(=O)[C@@]3(C)C[C@@H](O)[C@@H](O)[C@@]2(C)[C@@H]13 | – | – | – | – | Activity [6]: Active; Activity [8]: Active; IC50 [3]: < 2500 nM; IC50 [5]: < 2500 nM; Activity [9]: Active; Activity [10]: Active; Activity [11]: inactive; Activity [12]: Active; Activity [13]: Active; Activity [7]: Active; Activity [14]: Active; Activity [15]: inactive; Activity [16]: inactive
14 | CCc1oc(=O)cc2c1[C@@H](O)[C@H]1OC(=O)[C@@]3(C)[C@@H](O)[C@H]4O[C@H]4[C@@]2(C)[C@@H]13 | inactive | inactive | – | – | –
15 | CC(O)c1oc(=O)cc2c1C[C@H]1OC(=O)[C@@]3(C)CC[C@@H](O)[C@@]2(C)[C@@H]13 (some centres not stated) | inactive | inactive | – | – | –
16 | CC(C)c1oc(=O)cc2c1[C@@H](O)[C@H]1OC(=O)[C@@]3(C)CC(=O)[C@@H](O)[C@@]2(C)[C@@H]13 | inactive | inactive | – | – | –
17 | CC(=O)O[C@H]1C(=O)[C@@]2(C)[C@H]([C@H](OC(=O)c3ccccc3)[C@]3(O)C[C@H](OC(=O)[C@H](O)[C@@H](NC(=O)c4ccccc4)c4ccccc4)C(C)=C1C3(C)C)[C@]1(OC(C)=O)CO[C@@H]1C[C@@H]2O [PACLITAXEL] | – | – | – | – | IC50 [3]: 104 nM; IC50 [5]: 164 nM
